Entries after “also recorded” stand apart in the source; their conditions may differ.
Assays:
[1] = test system: healthy participants; experiment: Choice reaction time task (CRT); type: in vivo, human; conditions: for CRT Median Motor Time / CRT Median Recognition Time / CRT Median Total Time: mean (SD)
Description: The choice reaction time (CRT; [31]) task was used to measure psychomotor speed. Outcome variables on the CRT were the median total reaction time, which can be broken down into the recognition time (time from stimulus onset to initiation of movement), and the motor reaction time (time from initiation of movement to stimulus termination).
(§1) Cognitive data: In this exploratory analysis, each outcome variable of the cognitive data was examined in a mixed model analysis of variance with one between-subjects factor of VU319 dose (0, 60, 120, 240, 400, 600 mg) and a within-subjects factor of testing session (pre-dose vs. post-dost administration). Post-hoc analysis compared each of the VU319 dose cohorts against the placebo group. Because the participants were healthy adults with normal cognitive function, we considered effects between no reductions in function to small improvement (d = 0.0–0.20) to be a positive result. For the food effect study, only the participants who received VU319 were examined due to the disproportionately small placebo group (n = 2). A within-subjects ANOVA including food condition (fasted/fed) and testing session (pre-dose vs. post-dose administration) was performed on each outcome variable.
The choice reaction time (CRT; (Hindmarch, 1984)) task was used to measure psychomotor speed. Outcome variables on the CRT were the median total reaction time, which can be broken down into the recognition time (time from stimulus onset to initiation of movement), and the motor reaction time (time from initiation of movement to stimulus termination).

[2] = test system: M1 mAChR; conditions: cited from earlier work
[3] = test system: healthy participants; experiment: Conner's Continuous Performance Task (CPT); type: in vivo, human
Experimental: (§2) The Conner’s Continuous Performance Task (CPT; [32]) tested sustained attention to a target. Participants saw a string of letters appearing one at a time on a computer screen. Participants were asked to press the spacebar whenever the target stimulus (any letter except for the X) appeared. Participants were asked to withhold responding when a X was presented, which is the non-target stimulus. A set of 15 outcome measures derived from the task report were recorded as key variables. These measures include Hit RT, Hit Standard Error, Commission, Omission and Perseveration errors, Sensitivity, Response style, and the Hit standard error across different interstimulus intervals.
as §1
as §2, with “(Conners et al., 2000))” for “[32])”

[4] = Food effect study 120 mg, Fasting, Post-Drug
[5] = Food effect study 120 mg, Fasting, Pre-Drug
[6] = Food effect study 120 mg, Fed, Post-Drug
[7] = Food effect study 120 mg, Fed, Pre-Drug
[8] = Food effect study 120 mg, Fasting, Post-Drug, mean (SD), n = 9
[9] = Food effect study 120 mg, Fasting, Pre-Drug, mean (SD), n = 9

Cn1cc2c(-c3cc(F)c(CN4Cc5ncccc5C4=O)c(F)c3)cccc2n1 [VU319]
CRT Median Motor Time [1, 4]: 299.2 (24.19) ms
CRT Median Recognition Time [1, 4]: 370.55 (33.17) ms
CRT Median Total Time [1, 4]: 679.55 (35.68) ms
CRT Median Motor Time [1, 5]: 302 (40.02) ms
CRT Median Recognition Time [1, 5]: 384.9 (53.58) ms
CRT Median Total Time [1, 5]: 691.25 (64.17) ms
CRT Median Motor Time [1, 6]: 297.25 (36.2) ms
CRT Median Recognition Time [1, 6]: 369.4 (41.57) ms
CRT Median Total Time [1, 6]: 673.65 (47.86) ms
CRT Median Motor Time [1, 7]: 321.5 (36.67) ms
CRT Median Recognition Time [1, 7]: 365.45 (41.27) ms
CRT Median Total Time [1, 7]: 695.7 (47.32) ms
CRT Median Motor Time ([1]; SAD study, 60 mg, Post-Drug): 330.42 (64.58) ms
CRT Median Recognition Time ([1]; SAD study, 60 mg, Post-Drug): 394.92 (82.56) ms
CRT Median Total Time ([1]; SAD study, 60 mg, Post-Drug): 734.25 (120.68) ms
CRT Median Motor Time ([1]; SAD study, 60 mg, Pre-Drug): 331.08 (35.75) ms
CRT Median Recognition Time ([1]; SAD study, 60 mg, Pre-Drug): 391.33 (59.93) ms
CRT Median Total Time ([1]; SAD study, 60 mg, Pre-Drug): 735.08 (60.61) ms
CRT Median Motor Time ([1]; SAD study, 120 mg, Post-Drug): 332.67 (89.6) ms
CRT Median Recognition Time ([1]; SAD study, 120 mg, Post-Drug): 389 (43.6) ms
CRT Median Motor Time ([1]; SAD study, 120 mg, Pre-Drug): 329.08 (80.22) ms
CRT Median Recognition Time ([1]; SAD study, 120 mg, Pre-Drug): 384.92 (42.09) ms
CRT Median Total Time ([1]; SAD study, 120 mg, Pre-Drug): 718.58 (103.36) ms
CRT Median Motor Time ([1]; SAD study, 240 mg, Post-Drug): 353.25 (69.11) ms
CRT Median Recognition Time ([1]; SAD study, 240 mg, Post-Drug): 399 (83.54) ms
CRT Median Total Time ([1]; SAD study, 240 mg, Post-Drug): 759.42 (151.55) ms
CRT Median Motor Time ([1]; SAD study, 240 mg, Pre-Drug): 374.58 (64.5) ms
CRT Median Recognition Time ([1]; SAD study, 240 mg, Pre-Drug): 410.5 (68.61) ms
CRT Median Total Time ([1]; SAD study, 240 mg, Pre-Drug): 800.92 (121.25) ms
CRT Median Motor Time ([1]; SAD study, 400 mg, Post-Drug): 334.33 (33) ms
CRT Median Recognition Time ([1]; SAD study, 400 mg, Post-Drug): 388.17 (40.47) ms
CRT Median Total Time ([1]; SAD study, 400 mg, Post-Drug): 728.92 (57.1) ms
CRT Median Motor Time ([1]; SAD study, 400 mg, Pre-Drug): 331 (38.55) ms
CRT Median Recognition Time ([1]; SAD study, 400 mg, Pre-Drug): 396.67 (41.84) ms
CRT Median Total Time ([1]; SAD study, 400 mg, Pre-Drug): 731 (55.14) ms
CRT Median Motor Time ([1]; SAD study, 600 mg, Post-Drug): 282.33 (56.95) ms
CRT Median Recognition Time ([1]; SAD study, 600 mg, Post-Drug): 362.67 (52.01) ms
CRT Median Total Time ([1]; SAD study, 600 mg, Post-Drug): 649.58 (71.76) ms
CRT Median Motor Time ([1]; SAD study, 600 mg, Pre-Drug): 291.42 (46.98) ms
CRT Median Recognition Time ([1]; SAD study, 600 mg, Pre-Drug): 364.92 (18.0) ms
CRT Median Total Time ([1]; SAD study, 600 mg, Pre-Drug): 662.17 (61.66) ms
CRT total, recognition and motor time, effect of dose ([1]; SAD study, all p > 0.1): no effect of dose, session, nor a dose by session interaction
CRT recognition time, food condition by session interaction, effect size d ([1]; food effect study, 120 mg, p = 0.027, quicker recognition post-dose in fasted condition): 1.76
agonist properties at M1 [2]: devoid of agonist properties; also recorded: lack of direct orthosteric agonism of M1 receptors
CPT Hit RT, 600 mg vs placebo, effect size d ([3]; 600 mg, pre-dose to post-dose): 1.48
CPT Hit RT, pre- to post-dose change, mean difference vs placebo ([3]; 600 mg, p = 0.012): -28.12
CPT Commission Errors [3, 8]: 12.6 (6.62)
CPT Hit Response Time [3, 8]: 387.85 (64.33) ms
CPT Omission Errors [3, 8]: 4.33 (7.16)
CPT Perseverations [3, 8]: 2.56 (6.93)
CPT Commission Errors [3, 9]: 11.6 (5.68)
CPT Hit Response Time [3, 9]: 395.78 (51.66) ms

— article PMC12211128, “Safety, tolerability, pharmacokinetic and pharmacodynamic effects of the muscarinic M1 positive allosteric modulator VU0467319 for Alzheimer’s disease: a single ascending-dose study in healthy participants” (Alzheimer's Research & Therapy, 2025)
